Reference: patent US20130072430A1, “METHODS FOR TREATMENT OR PROPHYLAXIS OF KIDNEY OR LIVER DYSFUNCTION” (NPS PHARMACEUTICALS, INC., priority 2010, published 2013)

Tested on: Human patients with short bowel syndrome
Experiment: Example 1: liver diagnostic biomarkers (total bilirubin, ALT, AST, ALP) in short bowel syndrome patients, every four weeks for 24 weeks
Assay type: in vivo
Design: AST (SGOT) Change from Baseline, Median / ALT (SGPT), Median / TOTAL BILIRUBIN, Median / TOTAL BILIRUBIN Change from Baseline, Median / ALT (SGPT) Change from Baseline, Median / AST (SGOT), Median: unit not given here
Description: Human patients with short bowel syndrome were divided into three groups: a control group (16 total individuals) to receive placebo, an experimental group (35 total individuals) to receive teduglutide at 0.05 mg/kg/day throughout the study, and an experimental group (32 total individuals) to receive teduglutide at 0.1 mg/kg/day throughout the study. Patients were treated by subcutaneous injection of placebo or the appropriate dose of teduglutide. As individuals with short bowel syndrome are likely to experience associated liver and kidney disease, known biomarkers of liver and kidney function were monitored every four weeks, for 24 weeks. The liver biomarkers tested included total bilirubin, ALT and AST and ALP. The kidney biomarkers tested included urea nitrogen, creatinine and GFR. Before administration of placebo or teduglutide, diagnostic biomarker levels were tested to establish a baseline for each individual.
To visualize the effect of GLP-2 on the levels of the diagnostic biomarkers, the average change from baseline was calculated for the placebo and teduglutide treated groups for each visit after a baseline was established. The average change from baseline of each group is depicted in FIGS. […]. The numerical figures for each diaanostic biomarker at each time point are depicted in Table 1.
The efficacy of teduglutide in treating liver dysfunction was further tested by sorting the data into two groups: individuals with abnormal baseline values of liver diagnostic biomarkers; and individuals with normal baseline values of liver diagnostic biomarkers. The mean diagnostic biomarker change from baseline for these two groups is shown for ALT (FIGS. 5 and 6) and AST (FIGS. 7 and 8). […] These changes were significant when compared to baseline levels for the group, and when compared to placebo (see FIGS. 5 and 7).
The raw data for this sorting is reproduced in Table 2 below.

[1] = Week 4, range <−5%, teduglutide 0.05 mg/kg/day
[2] = Week 4, range <−5%, teduglutide 0.1 mg/kg/day
[3] = Week 4, range >5%, teduglutide 0.05 mg/kg/day
[4] = Week 4, range >5%, teduglutide 0.1 mg/kg/day
[5] = Week 4, range −5%<= and <=5%, teduglutide 0.05 mg/kg/day
[6] = Week 4, range −5%<= and <=5%, teduglutide 0.1 mg/kg/day
[7] = Week 8, range <−5%, teduglutide 0.05 mg/kg/day
[8] = Week 8, range <−5%, teduglutide 0.1 mg/kg/day
[9] = Week 8, range >5%, teduglutide 0.05 mg/kg/day
[10] = Week 8, range >5%, teduglutide 0.1 mg/kg/day
[11] = Week 8, range −5%<= and <=5%, teduglutide 0.05 mg/kg/day
[12] = Week 8, range −5%<= and <=5%, teduglutide 0.1 mg/kg/day
[13] = Week 12, range <−5%, teduglutide 0.05 mg/kg/day
[14] = Week 12, range <−5%, teduglutide 0.1 mg/kg/day
[15] = Week 12, range >5%, teduglutide 0.05 mg/kg/day
[16] = Week 12, range >5%, teduglutide 0.1 mg/kg/day

In the case of `CC[C@H](C)[C@H](NC(=O)[C@H](Cc1ccccc1)NC(=O)[C@H](CC(=O)O)NC(=O)[C@H](CCCNC(=N)N)NC(=O)[C@H](C)NC(=O)[C@H](C)NC(=O)[C@H](CC(C)C)NC(=O)[C@H](CC(N)=O)NC(=O)[C@H](CC(=O)O)NC(=O)[C@H](CC(C)C)NC(=O)[C@@H](NC(=O)[C@@H](NC(=O)[C@H](CC(N)=O)NC(=O)[C@H](CCSC)NC(=O)[C@H](CCC(=O)O)NC(=O)[C@H](CC(=O)O)NC(=O)[C@H](CO)NC(=O)[C@H](Cc1ccccc1)NC(=O)[C@H](CO)NC(=O)CNC(=O)[C@H](CC(=O)O)NC(=O)CNC(=O)[C@@H](N)Cc1c[nH]cn1)[C@@H](C)O)[C@@H](C)CC)C(=O)N[C@@H](CC(N)=O)C(=O)N[C@@H](Cc1c[nH]c2ccccc12)C(=O)N[C@@H](CC(C)C)C(=O)N[C@H](C(=O)N[C@@H](CCC(N)=O)C(=O)N[C@H](C(=O)N[C@@H](CCCCN)C(=O)N[C@H](C(=O)N[C@H](C(=O)N[C@@H](CC(=O)O)C(=O)O)[C@@H](C)O)[C@@H](C)CC)[C@@H](C)O)[C@@H](C)CC` [teduglutide], the “AST (SGOT), Median” value (0.10 mg/kg/day, DW20) is reported as 30.0, the “TOTAL BILIRUBIN Change from Baseline, Mean (SD)” value (0.10 mg/kg/day, DW20) is reported as −2.7 (14.42) and the “TOTAL BILIRUBIN Change from Baseline, Median” value (0.10 mg/kg/day, DW20) is reported as 0.0. For the same compound, the “TOTAL BILIRUBIN, Mean (SD)” value (0.10 mg/kg/day, DW20) was 10.4 (10.13), the “TOTAL BILIRUBIN, Median” value (0.10 mg/kg/day, DW20) was 7.0 and the “ALKALINE PHOSPHATASE Change from Baseline, Mean (SD)” value (0.10 mg/kg/day, DW24) was −18.9 (67.08). The “ALKALINE PHOSPHATASE Change from Baseline, Median” value (0.10 mg/kg/day, DW24) was −21.0, the “ALKALINE PHOSPHATASE, Mean (SD)” value (0.10 mg/kg/day, DW24) was 136.7 (85.50) and the “ALKALINE PHOSPHATASE, Median” value (0.10 mg/kg/day, DW24) was 105.0. The “ALT (SGPT) Change from Baseline, Mean (SD)” value (0.10 mg/kg/day, DW24) was −7.3 (32.62), the “ALT (SGPT) Change from Baseline, Median” value (0.10 mg/kg/day, DW24) was −4.0 and the “ALT (SGPT), Mean (SD)” value (0.10 mg/kg/day, DW24) was 42.2 (27.28). For the same compound, the “ALT (SGPT), Median” value (0.10 mg/kg/day, DW24) was 37.0, the “AST (SGOT) Change from Baseline, Mean (SD)” value (0.10 mg/kg/day, DW24) was −4.8 (23.34) and the “AST (SGOT) Change from Baseline, Median” value (0.10 mg/kg/day, DW24) was −3.0. For the same compound, the “AST (SGOT), Mean (SD)” value (0.10 mg/kg/day, DW24) was 35.3 (18.69), the “AST (SGOT), Median” value (0.10 mg/kg/day, DW24) was 32.0 and the “TOTAL BILIRUBIN Change from Baseline, Mean (SD)” value (0.10 mg/kg/day, DW24) was −2.4 (12.73). The “TOTAL BILIRUBIN Change from Baseline, Median” value (0.10 mg/kg/day, DW24) was 0.0, the “TOTAL BILIRUBIN, Mean (SD)” value (0.10 mg/kg/day, DW24) was 11.3 (12.28) and the “TOTAL BILIRUBIN, Median” value (0.10 mg/kg/day, DW24) was 9.0. The “ALKALINE PHOSPHATASE change from baseline: patients in range, n(%)” value (“ALKALINE PHOSPHATASE change … n(%)” for short) [1] was 21(60.0%), the “ALT (SGPT) change from baseline: patients in range, n(%)” value (“ALT (SGPT) change from baseline … n(%)” for short) [1] was 22(62.9%) and the “AST (SGOT) change from baseline: patients in range, n(%)” value (“AST (SGOT) change from baseline … n(%)” below) [1] was 21(60.0%). The “TOTAL BILIRUBIN change from baseline: patients in range, n(%)” value (shortened to “TOTAL BILIRUBIN change … n(%)”) [1] was 12(34.3%), the “ALKALINE PHOSPHATASE change … n(%)” value [2] was 17(53.1%) and the “ALT (SGPT) change from baseline … n(%)” value [2] was 20(62.5%). The “AST (SGOT) change from baseline … n(%)” value [2] was 17(53.1%), the “TOTAL BILIRUBIN change … n(%)” value [2] was 16(50.0%) and the “ALKALINE PHOSPHATASE change … n(%)” value [3] was 3(8.6%). For the same compound, the “ALT (SGPT) change from baseline … n(%)” value [3] was 8(22.9%), the “AST (SGOT) change from baseline … n(%)” value [3] was 5(14.3%) and the “TOTAL BILIRUBIN change … n(%)” value [3] was 8(22.9%). For the same compound, the “ALKALINE PHOSPHATASE change … n(%)” value [4] was 11(34.4%), the “ALT (SGPT) change from baseline … n(%)” value [4] was 10(31.3%) and the “AST (SGOT) change from baseline … n(%)” value [4] was 10(31.3%). The “TOTAL BILIRUBIN change … n(%)” value [4] was 12(37.5%), the “ALKALINE PHOSPHATASE change … n(%)” value [5] was 6(17.1%) and the “ALT (SGPT) change from baseline … n(%)” value [5] was 0(0.0%). The “AST (SGOT) change from baseline … n(%)” value [5] was 2(5.7%), the “TOTAL BILIRUBIN change … n(%)” value [5] was 6(17.1%) and the “ALKALINE PHOSPHATASE change … n(%)” value [6] was 4(12.5%). The “ALT (SGPT) change from baseline … n(%)” value [6] was 2(6.3%), the “AST (SGOT) change from baseline … n(%)” value [6] was 4(12.5%) and the “TOTAL BILIRUBIN change … n(%)” value [6] was 3(9.4%). The “ALKALINE PHOSPHATASE change … n(%)” value [7] was 21(60.0%), the “ALT (SGPT) change from baseline … n(%)” value [7] was 16(45.7%) and the “AST (SGOT) change from baseline … n(%)” value [7] was 16(45.7%). The “TOTAL BILIRUBIN change … n(%)” value [7] was 13(37.1%), the “ALKALINE PHOSPHATASE change … n(%)” value [8] was 24(75.0%) and the “ALT (SGPT) change from baseline … n(%)” value [8] was 20(62.5%). The “AST (SGOT) change from baseline … n(%)” value [8] was 21(65.6%), the “TOTAL BILIRUBIN change … n(%)” value [8] was 16(50.0%) and the “ALKALINE PHOSPHATASE change … n(%)” value [9] was 6(17.1%). For the same compound, the “ALT (SGPT) change from baseline … n(%)” value [9] was 9(25.7%), the “AST (SGOT) change from baseline … n(%)” value [9] was 9(25.7%) and the “TOTAL BILIRUBIN change … n(%)” value [9] was 8(22.9%). For the same compound, the “ALKALINE PHOSPHATASE change … n(%)” value [10] was 5(15.6%), the “ALT (SGPT) change from baseline … n(%)” value [10] was 8(25.0%) and the “AST (SGOT) change from baseline … n(%)” value [10] was 5(15.6%). The “TOTAL BILIRUBIN change … n(%)” value [10] was 7(21.9%), the “ALKALINE PHOSPHATASE change … n(%)” value [11] was 2(5.7%) and the “ALT (SGPT) change from baseline … n(%)” value [11] was 4(11.4%). For the same compound, the “AST (SGOT) change from baseline … n(%)” value [11] was 4(11.4%), the “TOTAL BILIRUBIN change … n(%)” value [11] was 4(11.4%) and the “ALKALINE PHOSPHATASE change … n(%)” value [12] was 2(6.3%). The “ALT (SGPT) change from baseline … n(%)” value [12] was 2(6.3%), the “AST (SGOT) change from baseline … n(%)” value [12] was 4(12.5%) and the “TOTAL BILIRUBIN change … n(%)” value [12] was 6(18.8%). The “ALKALINE PHOSPHATASE change … n(%)” value [13] was 23(65.7%), the “ALT (SGPT) change from baseline … n(%)” value [13] was 19(54.3%) and the “AST (SGOT) change from baseline … n(%)” value [13] was 19(54.3%). The “TOTAL BILIRUBIN change … n(%)” value [13] was 14(40.0%), the “ALKALINE PHOSPHATASE change … n(%)” value [14] was 19(59.4%) and the “ALT (SGPT) change from baseline … n(%)” value [14] was 20(62.5%). The “AST (SGOT) change from baseline … n(%)” value [14] was 15(46.9%), the “TOTAL BILIRUBIN change … n(%)” value [14] was 14(43.8%) and the “ALKALINE PHOSPHATASE change … n(%)” value [15] was 2(5.7%). The “ALT (SGPT) change from baseline … n(%)” value [15] was 4(11.4%), the “AST (SGOT) change from baseline … n(%)” value [15] was 5(14.3%) and the “TOTAL BILIRUBIN change … n(%)” value [15] was 6(17.1%). For the same compound, the “ALKALINE PHOSPHATASE change … n(%)” value [16] was 10(31.3%), the “ALT (SGPT) change from baseline … n(%)” value [16] was 7(21.9%) and the “AST (SGOT) change from baseline … n(%)” value [16] was 10(31.3%). The “TOTAL BILIRUBIN change … n(%)” value [16] was 9(28.1%) and the “ALKALINE PHOSPHATASE change … n(%)” value (Week 12, range −5%<= and <=5%, teduglutide 0.05 mg/kg/day) was 2(5.7%).
